Results as given in ChEMBL document CHEMBL1132981 (J Med Chem, 2000).
pKi: −log10 of the molar value.

How the values were obtained:
[1] = target: Adenosine receptors; A2b & A3 (Homo sapiens) (UniProt P29275+P0DMS8); assay: Selectivity ratio of hA3 to hA2B; format: protein assay
[2] = target: Adenosine receptors; A1 & A2b (Homo sapiens) (UniProt P30542+P29275); assay: Selectivity ratio of hA1 to hA2B; format: protein assay
[3] = target: Adenosine receptor A2a (Rattus norvegicus) (UniProt P30543); assay: Antagonist activity against adenosine A2A receptor in rat striatal membrane using [3H]CGS-21680; format: functional, cell membranes; conditions: Striatum, concentration not given here
Adenosine receptor A1 [4] = target: T1, Adenosine receptor A1 (Homo sapiens, UniProt P30542); assay: biochemical
T1 sequence (P30542 whole entry): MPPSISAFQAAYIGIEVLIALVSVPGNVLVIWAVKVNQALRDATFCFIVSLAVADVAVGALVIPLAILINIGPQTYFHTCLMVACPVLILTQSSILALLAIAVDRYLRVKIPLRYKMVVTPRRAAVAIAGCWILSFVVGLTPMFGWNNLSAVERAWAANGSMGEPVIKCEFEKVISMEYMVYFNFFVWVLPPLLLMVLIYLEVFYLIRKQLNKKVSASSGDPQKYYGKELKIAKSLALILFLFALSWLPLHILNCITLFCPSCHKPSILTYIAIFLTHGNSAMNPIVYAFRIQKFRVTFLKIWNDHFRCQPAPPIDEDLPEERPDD
Description: Antagonist activity against recombinant human adenosine A1 receptor expressed in HEK293 cells in presence of [125I]IABA radioligand.

Adenosine receptor A2a [5] = target: Adenosine receptor A2a (Homo sapiens, UniProt P29274); assay: biochemical
Description: Antagonist activity against recombinant human adenosine A2A receptor expressed in HEK293 cells in presence of [125I]iodo-ZM-241385 radioligand.

Adenosine receptor A3 [6] = target: T2, Adenosine receptor A3 (Homo sapiens, UniProt P0DMS8); assay: biochemical
T2 sequence (P0DMS8 whole entry): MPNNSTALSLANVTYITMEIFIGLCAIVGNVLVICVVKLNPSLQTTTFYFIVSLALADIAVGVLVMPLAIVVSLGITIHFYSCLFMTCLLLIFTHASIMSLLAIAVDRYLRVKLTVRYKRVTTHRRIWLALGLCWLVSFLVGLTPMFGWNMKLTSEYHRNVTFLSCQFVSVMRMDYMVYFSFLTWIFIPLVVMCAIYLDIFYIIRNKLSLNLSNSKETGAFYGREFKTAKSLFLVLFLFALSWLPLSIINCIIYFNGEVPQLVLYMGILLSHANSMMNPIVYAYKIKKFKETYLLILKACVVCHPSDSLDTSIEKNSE
Description: Antagonist activity against human adenosine A3 receptor expressed in HEK cells in presence of [125]IAB-MECA or [125I]IABA radioligand.

Adenosine receptor A2b = target: T3, Adenosine receptor A2b (Homo sapiens, UniProt P29275)
T3 sequence (P29275 whole entry): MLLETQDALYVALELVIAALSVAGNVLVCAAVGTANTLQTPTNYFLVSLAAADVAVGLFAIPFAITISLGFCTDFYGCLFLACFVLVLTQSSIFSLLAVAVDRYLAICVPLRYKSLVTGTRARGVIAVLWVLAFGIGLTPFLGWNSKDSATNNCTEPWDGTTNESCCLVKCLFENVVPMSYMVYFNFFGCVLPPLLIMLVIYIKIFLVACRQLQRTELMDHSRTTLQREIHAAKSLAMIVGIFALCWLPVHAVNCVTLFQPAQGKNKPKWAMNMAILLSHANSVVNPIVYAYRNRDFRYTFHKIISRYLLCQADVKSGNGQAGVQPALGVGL
Description: Antagonist activity against human A2B adenosine receptor expressed in HEK293 cells uisng [3H]ZM-241385 or [125I]-IABOPX

[7] = target: T4, Adenosine receptor A1 (Rattus norvegicus) (UniProt P25099); assay: Antagonist activity against A1 adenosine receptor in rat brain membrane using [3H]-R-PIA at 10e-5 M; format: functional, cell membranes
T4 sequence (whole entry): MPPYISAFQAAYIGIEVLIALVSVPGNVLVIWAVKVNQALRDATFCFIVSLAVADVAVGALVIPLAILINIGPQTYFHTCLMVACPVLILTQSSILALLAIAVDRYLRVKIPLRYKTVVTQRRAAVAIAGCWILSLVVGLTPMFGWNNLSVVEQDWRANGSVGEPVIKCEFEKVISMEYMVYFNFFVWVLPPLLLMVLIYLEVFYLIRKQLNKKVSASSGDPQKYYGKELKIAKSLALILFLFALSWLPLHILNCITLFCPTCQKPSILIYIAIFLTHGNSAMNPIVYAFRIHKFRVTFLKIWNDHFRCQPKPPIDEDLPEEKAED

[8] = target: T5, Adenosine receptor A2b (Homo sapiens) (UniProt P29275); format: functional, cell-based; conditions: HEK293, 10e-5 M
T5 sequence (whole entry): T3 sequence (P29275 whole entry)

[9] = target: Adenosine receptor A2a (Rattus norvegicus) (UniProt P30543); assay: Antagonist activity against adenosine A2A receptor in rat striatal membrane using [3H]CGS-21680 at 10e-5 M; format: functional, cell membranes; conditions: Striatum
Adenosine receptor A3 [10] = target: T6, Adenosine receptor A3 (Rattus norvegicus, UniProt P28647); format: functional
T6 sequence (P28647 whole entry): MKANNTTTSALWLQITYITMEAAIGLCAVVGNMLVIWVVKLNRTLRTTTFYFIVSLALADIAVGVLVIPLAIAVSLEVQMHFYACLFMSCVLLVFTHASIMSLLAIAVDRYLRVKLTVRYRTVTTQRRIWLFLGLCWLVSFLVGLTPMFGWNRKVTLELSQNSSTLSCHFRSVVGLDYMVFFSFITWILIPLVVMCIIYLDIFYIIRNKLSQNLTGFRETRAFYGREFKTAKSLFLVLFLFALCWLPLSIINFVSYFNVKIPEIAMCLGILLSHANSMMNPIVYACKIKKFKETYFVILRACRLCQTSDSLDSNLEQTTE

Adenosine receptor A2a [11] = target: Adenosine receptor A2a (Rattus norvegicus, UniProt P30543); assay: biochemical
Description: Antagonist activity against adenosine A2A receptor in rat striatal membrane in presence of [3H]CGS-21680 radioligand.

Adenosine receptor A1 [12] = target: T7, Adenosine receptor A1 (Rattus norvegicus, UniProt P25099); assay: biochemical
T7 sequence (P25099 whole entry): T4 sequence (whole entry)
Description: Antagonist activity against adenosine A1 receptor in rat brain membrane in presence of [3H]R-PIA radioligand.

[13] = target: T8, Adenosine receptor A3 (Homo sapiens) (UniProt P0DMS8); format: functional, cell-based; conditions: HEK293, 10e-6 M
T8 sequence (whole entry): T2 sequence (P0DMS8 whole entry)

[14] = target: T4, Adenosine receptor A1 (Rattus norvegicus); assay: Antagonist activity against adenosine A1 receptor in rat brain membrane using [3H]R-PIA at 10e-5 M; format: functional, cell membranes

Adenosine receptor A2a (Rattus norvegicus), sequence (P30543 whole entry): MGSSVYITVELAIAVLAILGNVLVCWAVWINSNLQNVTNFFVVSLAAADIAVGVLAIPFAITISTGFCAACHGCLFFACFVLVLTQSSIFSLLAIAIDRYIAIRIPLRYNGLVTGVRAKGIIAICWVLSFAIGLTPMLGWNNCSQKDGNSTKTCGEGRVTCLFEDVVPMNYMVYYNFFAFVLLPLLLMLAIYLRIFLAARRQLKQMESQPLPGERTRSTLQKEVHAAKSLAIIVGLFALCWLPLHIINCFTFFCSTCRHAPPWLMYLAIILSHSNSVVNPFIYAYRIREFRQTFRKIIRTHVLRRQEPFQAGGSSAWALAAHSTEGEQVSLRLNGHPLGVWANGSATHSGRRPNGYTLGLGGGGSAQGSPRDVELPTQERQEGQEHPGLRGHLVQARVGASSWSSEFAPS
Adenosine receptor A2a (Homo sapiens, UniProt P29274), sequence (P29274 whole entry): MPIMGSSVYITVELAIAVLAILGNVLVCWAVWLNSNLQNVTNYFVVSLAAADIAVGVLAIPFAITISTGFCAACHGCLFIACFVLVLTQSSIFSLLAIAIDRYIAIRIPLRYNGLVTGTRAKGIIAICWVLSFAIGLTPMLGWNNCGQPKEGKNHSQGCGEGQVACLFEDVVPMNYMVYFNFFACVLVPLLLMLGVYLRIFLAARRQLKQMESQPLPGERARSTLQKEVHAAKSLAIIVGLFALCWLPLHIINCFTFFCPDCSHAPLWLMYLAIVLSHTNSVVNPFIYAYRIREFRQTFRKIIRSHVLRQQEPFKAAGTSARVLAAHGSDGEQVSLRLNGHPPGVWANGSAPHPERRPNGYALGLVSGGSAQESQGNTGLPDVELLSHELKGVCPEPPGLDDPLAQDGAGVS
Adenosine receptor A2a (Rattus norvegicus, UniProt P30543), sequence (P30543 whole entry): as the sequence (P30543 whole entry) above

Structure (SMILES) | Ratio [1] | Ratio [2] | also measured
CCCn1c(=O)c2nc(-c3ccc(OCC(=O)Nc4ccccc4)cc3)[nH]c2n(CCC)c1=O | 93 | 27 | 
CCCn1c(=O)c2nc(-c3ccc(OCC(=O)Nc4ccccc4C(C)=O)cc3)[nH]c2n(CCC)c1=O | 23 | 120 | 
CCCn1c(=O)c2nc(-c3ccc(OCC(=O)Nc4ccc(I)cc4)cc3)[nH]c2n(CCC)c1=O | 600 | 140 | 
O=C(O)COc1ccc(-c2nc3c(=O)n(Cc4ccccc4)c(=O)n(Cc4ccccc4)c3[nH]2)cc1 |  |  | inhibition [3]: 25%
C=CCn1c(=O)c2nc(-c3ccc(OCC(=O)O)cc3)[nH]c2n(CC=C)c1=O | 5.8 | 12 | 
CCCCn1c(=O)c2nc(-c3ccc(OCC(=O)O)cc3)[nH]c2n(CCCC)c1=O | 1.9 | 3.1 | 
CCCn1c(=O)c2nc(-c3ccc(OCC(=O)N(Cc4ccccc4)Cc4ccccc4)cc3)[nH]c2n(CCC)c1=O | 29 | 70 | 
CCCn1c(=O)c2[nH]c(-c3ccc(OCC(=O)Nc4ccc(C(N)=O)cc4)cc3)nc2n(CCC)c1=O |  |  | pKi (Adenosine receptor A1 [4]): 6.79; pKi (Adenosine receptor A2a [5]): 7.41
CCCn1c(=O)c2nc(-c3ccc(OCC(=O)Nc4ccc(C(C)=O)cc4)cc3)[nH]c2n(CCC)c1=O | 170 | 110 | 
CCCn1c(=O)c2nc(-c3ccc(/C=C/C(=O)O)cc3)[nH]c2n(CCC)c1=O |  |  | pKi (Adenosine receptor A3 [6]): 7.52; pKi (Adenosine receptor A2b): 7.22
CC(=O)c1ccccc1NC(=O)/C=C/c1ccc(-c2nc3c(=O)n(CC4CCCCC4)c(=O)n(CC4CCCCC4)c3[nH]2)cc1 |  |  | Displacement [7]: < 10%; Displacement [8]: < 10%; Displacement [9]: < 10%
CCCn1c(=O)c2nc(-c3ccc(OCC(=O)Nc4ccc([N+](=O)[O-])cc4)cc3)[nH]c2n(CCC)c1=O | 91 | 38 | 
CCCn1c(=O)c2nc(-c3ccc(OCC(=O)Nc4ccc(Cl)cc4)cc3)[nH]c2n(CCC)c1=O | 760 | 20 | 
CCCn1c(=O)c2nc(-c3ccc(OCC(=O)NC(c4ccccc4)c4ccccc4)cc3)[nH]c2n(CCC)c1=O |  |  | inhibition [3]: 20%
CCCCn1c(=O)c2[nH]c(-c3ccc(OCC(=O)O)cc3)nc2n(CCCC)c1=O |  |  | pKi (Adenosine receptor A3 [10]): 4.56
CCn1c(=O)c2[nH]c(-c3ccc(OCC(=O)Nc4ccc(CC(=O)NCCN)cc4)cc3)nc2n(CC)c1=O |  |  | pKi (Adenosine receptor A2a [11]): 5.86; pKi (Adenosine receptor A1 [12]): 7.19; pKi (Adenosine receptor A2b): 7.82
CCCn1c(=O)c2nc(-c3ccc(OCC(=O)Nc4ccc(C(F)(F)F)cc4)cc3)[nH]c2n(CCC)c1=O | 100 | 29 | 
CC(=O)c1ccccc1NC(=O)/C=C/c1ccc(-c2nc3c(=O)n(Cc4ccccc4)c(=O)n(Cc4ccccc4)c3[nH]2)cc1 |  |  | Displacement [8]: < 10%; Displacement [9]: < 10%
CCCn1c(=O)c2nc(-c3ccc(OCC(=O)Nc4ccc(Br)cc4)cc3)[nH]c2n(CCC)c1=O | 980 | 31 | 
CCCn1c(=O)c2[nH]c(-c3ccc(OCC(=O)Nc4ccc(C(=O)O)cc4)cc3)nc2n(CCC)c1=O |  |  | pKi (Adenosine receptor A3 [6]): < 5.30; pKi (Adenosine receptor A1 [4]): 6.79; pKi (Adenosine receptor A2a [5]): 7.41
CCCn1c(=O)c2nc(-c3ccc(OCC(=O)Nc4ccc(C(=O)O)cc4)cc3)[nH]c2n(CCC)c1=O | > 300 | 10 | 
CCCn1c(=O)c2nc(-c3ccc(OCC(=O)Nc4ccc(C(=O)OC)cc4)cc3)[nH]c2n(CCC)c1=O | 92 | 57 | 
CCCn1c(=O)c2nc(-c3ccc(OCC(=O)NN4C(=O)C(C)=C(C)C4=O)cc3)[nH]c2n(CCC)c1=O | 25 | 110 | 
CCCn1c(=O)c2nc(-c3ccc(OCC(=O)Nc4cccc(C(C)=O)c4)cc3)[nH]c2n(CCC)c1=O | 72 | 48 | 
CCn1c(=O)c2nc(-c3ccc(OCC(=O)Nc4ccc(C)cc4)cc3)[nH]c2n(CC)c1=O |  |  | Displacement [13]: < 10%
O=C(O)/C=C/c1ccc(-c2nc3c(=O)n(CC4CCCCC4)c(=O)n(CC4CCCCC4)c3[nH]2)cc1 | 4.6 | 25 | pKi (Adenosine receptor A2a [11]): > 8.00
CC(=O)c1ccccc1NC(=O)COc1ccc(-c2nc3c(=O)n(Cc4ccccc4)c(=O)n(Cc4ccccc4)c3[nH]2)cc1 |  |  | Displacement [8]: < 10%; Displacement [14]: < 10%; Displacement [9]: < 10%
CCCn1c(=O)c2nc(-c3ccc(OCC(=O)Nc4ccc(F)cc4)cc3)[nH]c2n(CCC)c1=O | 176 | 8.1 | 
CCCn1c(=O)c2[nH]c(-c3ccc(OCC(=O)Nc4ccc(F)cc4)cc3)nc2n(CCC)c1=O |  |  | pKi (Adenosine receptor A1 [12]): 6.57
